Measurements: PMC11022729 (Advanced Science, 2024)

Experiments:
muscarinic M3 receptor = target: T1, muscarinic M3 receptor (Homo sapiens, UniProt P20309); test: biochemical; conditions: read-out: binding inhibition
T1 construct: purchased Eurofins Cerep P270
Procedure: (§1) Measurements were performed in duplicate.
(§2) channel, which were obtainedfrom ratspecimens).
(§3) in brackets) specific for each target.

muscarinic M1 receptor = target: T2, muscarinic M1 receptor (Homo sapiens, UniProt P11229); test: biochemical; conditions: read-out: binding inhibition
T2 construct: purchased Eurofins Cerep P270
Procedure: as §1, §2, §3

IB4-binding DRG neurons = test: Whole-cell current-clamp recordings on sensitized DRG neurons; format: cell-based, mouse; conditions: 50 µM
human Slack = target: T3, human Slack (Homo sapiens, UniProt Q5JUK3); test: Whole-cell patch-clamp recordings in HEK-Slack cells; format: cell-based; conditions: 25 µM
T3 construct: host or cells: HEK293
T3 sequence (Q5JUK3 1-1230): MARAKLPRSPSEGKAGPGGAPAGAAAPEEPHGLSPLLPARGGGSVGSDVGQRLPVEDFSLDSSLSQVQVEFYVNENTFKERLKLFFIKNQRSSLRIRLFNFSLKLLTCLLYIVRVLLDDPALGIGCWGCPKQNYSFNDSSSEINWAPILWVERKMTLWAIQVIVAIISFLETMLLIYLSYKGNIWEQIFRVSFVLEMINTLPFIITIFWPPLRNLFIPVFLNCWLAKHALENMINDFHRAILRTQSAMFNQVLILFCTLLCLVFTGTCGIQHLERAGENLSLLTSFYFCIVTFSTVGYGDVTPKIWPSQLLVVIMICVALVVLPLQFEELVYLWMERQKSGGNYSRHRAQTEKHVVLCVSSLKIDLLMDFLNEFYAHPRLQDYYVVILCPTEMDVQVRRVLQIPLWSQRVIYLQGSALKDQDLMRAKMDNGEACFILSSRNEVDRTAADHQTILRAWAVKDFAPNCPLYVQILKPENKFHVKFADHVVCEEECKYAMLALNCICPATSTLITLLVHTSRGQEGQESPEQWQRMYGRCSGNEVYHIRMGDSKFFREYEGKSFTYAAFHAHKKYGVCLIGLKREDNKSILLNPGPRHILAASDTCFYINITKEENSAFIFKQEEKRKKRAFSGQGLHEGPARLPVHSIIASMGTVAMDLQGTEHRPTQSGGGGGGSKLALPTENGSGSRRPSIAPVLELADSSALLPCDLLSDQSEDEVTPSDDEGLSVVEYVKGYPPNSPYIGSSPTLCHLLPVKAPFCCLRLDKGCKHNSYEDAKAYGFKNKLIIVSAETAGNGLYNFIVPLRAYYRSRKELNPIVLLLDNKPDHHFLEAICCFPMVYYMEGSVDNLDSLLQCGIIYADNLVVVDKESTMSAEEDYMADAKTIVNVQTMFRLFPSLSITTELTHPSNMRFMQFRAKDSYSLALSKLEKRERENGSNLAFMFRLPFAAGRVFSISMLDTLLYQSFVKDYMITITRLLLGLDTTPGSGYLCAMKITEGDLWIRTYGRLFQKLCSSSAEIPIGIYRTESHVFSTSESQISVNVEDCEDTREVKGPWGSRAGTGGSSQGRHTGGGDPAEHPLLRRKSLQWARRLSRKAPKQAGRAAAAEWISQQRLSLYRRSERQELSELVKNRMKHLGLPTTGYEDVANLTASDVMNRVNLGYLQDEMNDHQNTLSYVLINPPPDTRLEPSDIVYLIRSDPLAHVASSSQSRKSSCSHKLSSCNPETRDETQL
Procedure: Next, we verified Slack activation by the new compounds using whole‐cell patch‐clamp recordings in HEK‐Slack cells. […] At a holding potential of −70 mV, a series of 500 ms‐long test pulses ranging from −120 to +120 mV in intervals of 20 mV were applied.^[ [16] ^]
HEK‐Slack cells were plated onto poly‐D‐lysine‐coated (100 µg mL^−1, Sigma–Aldrich) coverslips 1 day before experiments and cultured in DMEM containing 10% FBS and 1% penicillin/streptomycin in 5% CO2 at 37 °C. Whole‐cell voltage‐clamp recordings were acquired using an EPC 9 amplifier combined with Patchmaster software (HEKA Electronics, Lambrecht/Pfalz, Germany). Currents were sampled at 20 kHz and filtered at 5 kHz. Data analysis was performed using the Fitmaster software (HEKA Electronics). Membrane potential was held at −70 mV and outward K^+ current (IK) was evoked by depolarizing steps (500 ms duration) ranging from −120 to +120 mV in increments of 20 mV. The pipette solution contained 140 mM KCl, 2 mM MgCl2, 5 mM EGTA, and 10 mM HEPES and was adjusted to pH 7.4 with KOH. The extracellular solution contained 140 mM NaCl, 5 mM KCl, 2 mM CaCl2, 2 mM MgCl2, and 10 mM HEPES and was adjusted to pH 7.4 with NaOH. […] The fold‐increase values in the patch‐clamp experiments were determined by calculating […]. […]

human D2S receptor = target: T4, human D2S receptor (Homo sapiens, UniProt P14416); test: [3H]-spiperone competition binding assay, D2
T4 construct: expressed in transfected cells; host or cells: CHO
Procedure: CHO cells stably expressing human dopamine D2short (D2R) and D3 receptor (D3R) were washed and harvested using PBS. […] The cell membrane homogenate was centrifuged (20 000 × g, 20 min, 4 °C), and the resulting cell pellet was resuspended in the binding buffer. Crude membrane extracts were kept at −80 °C until use. Before starting the experiments, cell membranes were thawed, homogenized by sonication (3 × 10 s), and stored in an ice‐cold binding buffer. […] Assays were performed at least in triplicate with appropriate concentrations ranging from 0.01 nM to 100 µM of the test compound. Non‐specific binding was determined using 10 µM haloperidol. By filtering through GF/B filters pretreated with 0.3% (m/v) polyethyleneimine, the bound radioligand was separated from free radioligand using a cell harvester. Radioactivity was measured using liquid scintillation counting. Data were evaluated using the GraphPad Prism 9 software (San Diego, CA, USA) with a nonlinear regression fit.

T4 sequence (P14416 1-414 isoform P14416-2): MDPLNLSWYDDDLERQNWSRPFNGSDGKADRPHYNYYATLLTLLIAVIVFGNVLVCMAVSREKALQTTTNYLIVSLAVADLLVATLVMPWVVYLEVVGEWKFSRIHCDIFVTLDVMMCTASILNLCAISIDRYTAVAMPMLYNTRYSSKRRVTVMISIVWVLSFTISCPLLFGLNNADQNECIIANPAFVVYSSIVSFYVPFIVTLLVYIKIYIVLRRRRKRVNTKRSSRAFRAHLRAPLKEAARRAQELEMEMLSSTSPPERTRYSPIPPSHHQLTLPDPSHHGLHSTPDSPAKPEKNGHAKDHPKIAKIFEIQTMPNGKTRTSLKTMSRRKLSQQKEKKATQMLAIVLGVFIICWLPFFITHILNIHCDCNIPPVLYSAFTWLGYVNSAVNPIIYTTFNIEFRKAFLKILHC
T2 sequence (P11229 whole entry): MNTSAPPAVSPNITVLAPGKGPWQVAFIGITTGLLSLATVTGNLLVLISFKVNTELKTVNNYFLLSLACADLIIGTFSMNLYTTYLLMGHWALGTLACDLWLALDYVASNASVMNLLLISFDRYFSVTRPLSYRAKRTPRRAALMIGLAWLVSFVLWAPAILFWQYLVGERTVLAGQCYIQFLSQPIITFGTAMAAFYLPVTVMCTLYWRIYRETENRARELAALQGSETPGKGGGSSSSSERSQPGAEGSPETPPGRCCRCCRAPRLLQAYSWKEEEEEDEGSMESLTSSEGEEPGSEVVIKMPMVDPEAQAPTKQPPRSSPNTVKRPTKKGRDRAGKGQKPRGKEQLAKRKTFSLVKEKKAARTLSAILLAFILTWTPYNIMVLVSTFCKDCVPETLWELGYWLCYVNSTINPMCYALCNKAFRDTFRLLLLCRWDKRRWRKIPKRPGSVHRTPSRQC
T1 sequence (P20309 whole entry): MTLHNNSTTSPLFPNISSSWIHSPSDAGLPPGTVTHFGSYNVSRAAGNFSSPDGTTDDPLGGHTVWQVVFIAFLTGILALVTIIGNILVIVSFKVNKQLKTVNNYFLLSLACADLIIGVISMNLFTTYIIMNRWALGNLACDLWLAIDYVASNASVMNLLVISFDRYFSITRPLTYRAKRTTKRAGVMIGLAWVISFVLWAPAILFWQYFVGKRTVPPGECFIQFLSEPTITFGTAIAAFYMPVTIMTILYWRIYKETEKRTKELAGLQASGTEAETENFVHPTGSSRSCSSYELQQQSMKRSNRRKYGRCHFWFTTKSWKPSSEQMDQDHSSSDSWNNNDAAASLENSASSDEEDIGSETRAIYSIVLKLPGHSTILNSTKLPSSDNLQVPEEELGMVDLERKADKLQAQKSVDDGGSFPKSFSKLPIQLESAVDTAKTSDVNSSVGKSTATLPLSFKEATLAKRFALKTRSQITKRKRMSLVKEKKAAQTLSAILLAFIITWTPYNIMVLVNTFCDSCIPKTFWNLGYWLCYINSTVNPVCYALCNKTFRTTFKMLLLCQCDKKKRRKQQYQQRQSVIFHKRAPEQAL

SMILES | inhibition at 10 µM (muscarinic M3 receptor) [%] | inhibition at 10 µM (muscarinic M1 receptor) [%] | AP amplitude (IB4-binding DRG neurons; cells with recorded APs) | AP duration at 90% repolarization (APD90) (IB4-binding DRG neurons; cells with recorded APs) | resting membrane potential (RMP) (IB4-binding DRG neurons; current injection 200–950 pA) | number of AP fired (IB4-binding DRG neurons; current injection 200–950 pA, after inflammatory soup) | rheobase compared to baseline (IB4-binding DRG neurons; in the 7 cells with recorded APs) | cells that elicited APs (IB4-binding DRG neurons; small currents (0–220 pA), vehicle 11 of 11) | increase in current densities (human Slack; 10 mM pipette Na+) | current densities compared to baseline (human Slack; Na+-free pipette solution) | fold lower affinity against D2 as compared to loxapine (human D2S receptor) | Ki (human D2S receptor; mean [CI 95%]) [µM]
CN1CCN(C2=Nc3ccccc3Oc3ccc(Cl)cc32)CC1 [Loxapine, reference compound] | > 50 | > 50 | – | – | – | – | – | – | – | – | – | –
O=C(O)COCCN1CCN(C2=Nc3ccccc3Oc3ccc(Cl)cc32)CC1 [Compound 6] | – | – | Neither compound 6 nor the vehicle had a significant effect | Neither compound 6 nor the vehicle had a significant effect | Neither compound 6 nor the vehicle significantly affected | profound decrease | visibly, but not significantly, increased | 7 of 13 | more pronounced | increased the current densities compared to baseline | ≈ 40 fold | 1.28
